The record followed here is the supplement of paper PMC3493320.

This experiment concerns NCI-H295R. Briefly: IC50 (antiproliferative, ATP content). The conditions noted are these: 48 h. The procedure, abridged: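 Adrenocortical carcinoma cells (1500 per well) were seeded in serum-free ITS-supplemented DMEM in 1536-well plates and cultured overnight. Library compounds were then pin-transferred at 8 final concentrations from 0.6 nM to 46 µM, and plates were kept 48 h at 37 °C, 5% CO2. ATP was read as CellTiter-Glo luminescence after 20 min at room temperature and normalised to vehicle (0%) and positive control (100% inhibition). IC50 came from four-parameter logistic fits; compounds with no concentration response were recorded as above the top dose.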
The IC50 is the point on the concentration scale where inhibition reaches its midpoint. As to `O=C(O)C(N12)=[C@@]([C@@H]3OCCC3)S[C@]1([H])[C@]([C@@H](C)O)([H])C2=O`, the IC50 is over 46 µM.

In turn, `Cl.Cl.OCCN1CCN(CC/C=C2\c3ccccc3Sc3ccc(Cl)cc32)CC1` displayed an IC50 of over 46 µM.

As to `O.O.Oc1cc(O)cc(O)c1`, the IC50 was over 46 µM. Compound `Cc1ccc(S(=O)(=O)N[C@H](CCCCN)C(=O)CCl)cc1.Cl` displayed an IC50 of over 46 µM. Compound `O=C([O-])CC(O)C(=O)[O-].[Na+].[Na+]` (stereo not drawn) yielded an IC50 of over 46 µM. Consider `Cc1cn([C@H]2C[C@H](F)[C@@H](CO)O2)c(=O)[nH]c1=O`, for which the IC50 is over 46 µM. As to `O=C([C@@H]([C@]4=CC=CC=C4)CO)O[C@@H]2C[C@@H]3[C@H]1O[C@H]1[C@@H]([N@+](C)3C)C2`, the IC50 was over 46 µM. Take `CC(=O)Nc1nnc(S(N)(=O)=O)s1`: the 50% inhibitory concentration (IC50) was over 46 µM. The compound `NS(=O)(=O)c1cc2c(cc1Cl)NC(Cc1ccccc1)NS2(=O)=O` (stereo not drawn) showed an IC50 of over 46 µM. Compound `NC(=O)c1cc[n+](CC2=C(C(=O)[O-])N3C(=O)[C@@H](NC(=O)[C@H](c4ccccc4)S(=O)(=O)[O-])[C@@H]3SC2)cc1.[Na+]` had an IC50 of over 46 µM. With `COc1cnc(NS(=O)(=O)c2ccc(N)cc2)nc1`, the IC50 was over 46 µM. Compound `CN1CCN(C2=Nc3ccccc3Sc3ccc(Cl)cc32)CC1` returned an IC50 of over 46 µM. Compound `C#C[C@]1(O)CC[C@H]2[C@@H]3CCC4=C(CCC(=O)C4)[C@H]3CC[C@@]21C` came in with an IC50 of over 46 µM. The compound `O=C1OC(c2ccc(O)c(S(=O)(=O)[O-])c2)(c2ccc(O)c(S(=O)(=O)[O-])c2)c2c(Br)c(Br)c(Br)c(Br)c21.[Na+].[Na+]` displayed an IC50 of over 46 µM. For the compound `CCOC(=O)C(C)(C)Oc1ccc(Cl)cc1`, the IC50 is over 46 µM.

Consider `N[C@@]([C@H]([C@H]1O)O[C@H]([C@@H]([C@H]1O)O)O)=O`, for which the half-inhibitory concentration (IC50) is over 46 µM. Consider `CC(=O)N[C@@H](Cc1ccc(O)cc1)C(=O)O`, for which the IC50 was over 46 µM.

`O=C(O)CN(CC(=O)O)Cc1cc2c(cc1O)Oc1ccc(CN(CC(=O)O)CC(=O)O)c(O)c1C21OC(=O)c2ccccc21` (stereo not drawn) showed an IC50 of over 46 µM. As to `C[C@H]1CCC[C@H](O)CCCCCc2cc(O)cc(O)c2C(=O)O1`, the IC50 is over 46 µM. The figure for `NCCCC[C@H](N[C@@H](CCc1ccccc1)C(=O)O)C(=O)N1CCC[C@H]1C(=O)O.O.O` is over 46 µM; for `CC(=O)Nc1ccc(OC(=O)c2ccccc2O)cc1` it is over 46 µM.

The compound `CC(=O)N(CC(O)CN(C(C)=O)c1c(I)c(C(=O)NCC(O)CO)c(I)c(C(=O)NCC(O)CO)c1I)c1c(I)c(C(=O)NCC(O)CO)c(I)c(C(=O)NCC(O)CO)c1I` (stereo not drawn) returned an IC50 of over 46 µM. `CCC1NC(=O)c2cc(S(N)(=O)=O)c(Cl)cc2N1` (stereo not drawn) showed an IC50 of over 46 µM. To `Cc1ncc(CO)c(C=O)c1O` belongs over 46 µM.

In turn, `O=C([C@H](CC1=CN=CN1)N[C@]([C@H](CC2)NC2=O)=O)N(CCC3)[C@@H]3[C@](N)=O` registered an IC50 of over 46 µM. `CCCc1ccc(C(=O)O)cc1` gave an IC50 of over 46 µM.

`COc1ccc(NS(=O)(=O)c2ccc(N)cc2)nn1` displayed an IC50 of over 46 µM.

`CCCCNC(=O)NS(=O)(=O)c1ccc(C)cc1` yielded an IC50 of over 46 µM. `COc1ccc(CCN(C)CCCC(C#N)(c2cc(OC)c(OC)c(OC)c2)C(C)C)cc1OC.Cl` (stereo not drawn) yielded an IC50 of over 46 µM. On to `COc1cc(C(=O)NCCCCCC(=O)O)cc(OC)c1OC`, for which the IC50 is over 46 µM. Compound `COc1ccc(C=CC(=O)OCCC(C)C)cc1` showed an IC50 of over 46 µM.

In turn, `Cl.O=S(=O)(c1cccc2cnccc12)N1CCCNCC1` gave an IC50 of over 46 µM.

Consider `O=C(O)c1ccccn1`, for which the IC50 is over 46 µM.

As to `NC(=O)c1cccnc1`, the IC50 is over 46 µM. The figure for `CCC1(C2=NCCN2)Cc2ccccc2O1` (stereo not drawn) is over 46 µM. As to `O=S(=O)([O-])O.[Na+]`, the IC50 was over 46 µM.

Compound `NC(=O)c1cnccn1` yielded an IC50 of over 46 µM. Turning to `CNC(=O)NC(O)C(Cl)(Cl)Cl` (stereo not drawn), the IC50 was over 46 µM.
